Usually melting point stands for the temperature, or range, at which the solid turns liquid.

From US20060063784A1, “Method of using substituted pyrazolo [1,5-a] pyrimidines” (priority 2004, published 2006) come the findings set out here.

For data set [1], the system named is 80S14 (p21-deficient) cells. The experiment in a line: Cytotoxicity assay using isogenic cell lines: IC50 in 80S14 (p21-deficient) cells, SRB. Format: cell-based, human. The settings on record: SRB. The method, boiled down: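 IC50 is the concentration halving proliferation relative to untreated controls, read from SRB absorbance (560 nm) after TCA fixation. Test agent dilutions (5 pM–50 μM or 170 pg/ml–10 μg/ml) were left on p21-deficient 80S14 cells (12,000/well, pre-incubated overnight) for 5 days at 37 °C.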

For data set [2], the system named is LoVo Colon cell line. The experiment in a line: Cytotoxicity assay using LoVo colon cell line, SRB. It counts as cell-based. The settings on record: 4 days incubation, SRB, read-out: Inhibition of LoVo. In a few lines: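 Growth inhibition read by sulforhodamine B after 4-day compound exposure at 37 °C. Colon LoVo cells plated at 4000 per well in RPMI/10% FBS a day earlier; doses ranged 5 pM-20 μM or 170 pg/ml-10 μg/ml. IC50 is the concentration halving proliferation versus untreated wells.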

The mark [3] stands for this setting: Homo sapiens, 120 h, 80S14 (p21-deficient) cells, 5 days, class symbols, read-out: IC50 for 80S14.
Setting [4] is: Homo sapiens, 96 h, Cellular activity in LoVo cell.
Where [5] appears, read: 80S14 (p21-deficient) cells, 5 days, class symbols, read-out: IC50 for 80S14.
[6] abbreviates: 80S14 p21-deficient cells, 5 days incubation, read-out: IC50 for 80SI4.

Several values for one entry are separate records, joined by “and”; a condition that tells them apart may be missing. Equal values may be shown once. Read-outs that look alike come from different tables or passages of the source.

On to `CCCCNC(=O)Nc1cccc(-c2ccnc3c(C(=O)c4cccs4)cnn23)c1` [Example 8, N-butyl-N′-{3-[3-(thien-2-ylcarbonyl)pyrazolo[1,5-a]pyrimidin-7-yl]phenyl}urea], for which the melting point was 158 to 160 °C. The IC50 in data set [1] (Homo sapiens, 120 h, 80S14 p21-deficient cells, 5 days incubation, read-out: IC50 for 80SI4) was less than 1 µM. The IC50 in data set [2] (Homo sapiens, 96 h, LoVo colon cells) was less than 0.1 µM.

`O=C(c1cccs1)c1cnn2c(-c3cccs3)ccnc12` [Example 224, 2-Thienyl[7-(2-thienyl)pyrazolo[1,5-a]-pyrimidin-3-yl}-methanone] came in with a melting point of 193 to 195 °C. Further, the IC50 in data set [1] (setting [3]) was 1 to 10 µM.

As to `O=C(c1ccco1)c1cnn2c(-c3cccc(NC(=O)C4CC4)c3)ccnc12` [Example 235, N-[3-[3-(2-Furanylcarbonyl)-pyrazolo[1,5-a]pyrimidin-7-yl]phenyl}-cyclopropanecarboxamide], the melting point lay in the range of 227 to 230 °C. Also, in data set [1] (setting [3]), the IC50 was less than 1 µM.

Molecule `O=C(c1cccs1)c1cnn2c(-c3cccc(-n4ccnc4)c3)ccnc12` [Example 244, [7-[3-(1H-imidazol-1-yl)phenyl]pyrazolo-[1,5-a]pyrimidin-3-yl]-2-thienyl-methanone] showed a melting point of 242 to 244 °C. In addition, the IC50 in data set [1] (setting [3]) was in the range of 1 to 10 µM.

Take `Cc1cn(-c2cccc(-c3ccnc4c(C(=O)c5cccs5)cnn34)c2)cn1` [Example 247, [7-[3-(4-Methyl-1H-imidazol-1-yl)phenyl]-pyrazolo[1,5-a]pyrimidin-3-yl]-2-thienyl-methanone]: the melting point lay within 232 to 234 °C. The IC50 in data set [1] (setting [3]) lay within 1 to 10 µM. The IC50 in data set [2] (setting [4]) fell in the range of 0.1 to 1 µM.

For the molecule `O=C(c1cccs1)c1cnn2c(-c3cccc(NC(=O)C4CC4)c3)ccnc12` [Example 249, N-[3-[3-(2-Thienylcarbonyl)pyrazolo[1,5-a]pyrimidin-7-yl]phenyl}-cyclopropanecarboxamide], the melting point was 192 to 194 °C. Also, the IC50 in data set [1] (setting [3]) was less than 1 µM.

`Nc1cccc(-c2ccnc3c(C(=O)c4cccs4)cnn23)c1` [Example 262, [7-(3-Aminophenyl)pyrazolo[1,5-a]pyrimidin-3-yl]-2-thienyl-methanone]: the melting point is 183 to 184 °C and 183 to 185 °C. Further, the IC50 in data set [1] (setting [3]) was in the range of 10 to 50 µM.

The molecule `O=C(c1ccco1)c1cnn2c(-c3cccc(-n4cccc4)c3)ccnc12` [Example 269, 2-Furanyl[7-[3-(1H-pyrrol-1-yl)phenyl]pyrazolo[1,5-a]pyrimidin-3-yl]-methanone] showed a melting point of 204 to 206 °C. Also, the IC50 in data set [1] (setting [3]) lay in the range of 1 to 10 µM.

In the case of `O=C(Nc1cccc(-c2ccnc3c(C(=O)c4cccs4)cnn23)c1)c1ccncc1` [Example 291, N-{3-[3-(2-Thienylcarbonyl)pyrazolo[1,5-a]pyrimidin-7-yl]phenyl}isonicotinamide], the melting point is 212 to 215 °C. In data set [1] (setting [3]), the IC50 was less than 1 µM. In addition, the IC50 in data set [2] (setting [4]) was less than 0.1 µM.

`CC(C)CCNc1cccc(-c2ccnc3c(C(=O)c4cccs4)cnn23)c1` [Example 350, {7-[3-(Isopentylamino)phenyl]pyrazolo[1,5-a]pyrimidin-3-yl}(thien-2-yl)methanone] showed a melting point of 75 to 77 °C. Besides, the IC50 in data set [1] (setting [3]) is less than 1 µM. For the same molecule, the IC50 in data set [2] (setting [4]) was less than 0.1 µM.

`O=C(Nc1cccc(-c2ccnc3c(C(=O)c4cccs4)cnn23)c1)c1ccccc1F` [Example 358, 2-Fluoro-N-{3-[3-(thien-2-ylcarbonyl)pyrazolo[1,5-a]pyrimidin-7-yl]phenyl}benzamide] yielded a melting point of 190 to 191 °C. The IC50 in data set [1] (setting [3]) is less than 1 µM. Also, the IC50 in data set [2] (setting [4]) is less than 0.1 µM.

For the molecule `O=C(c1cccs1)c1cnn2c(Cl)ccnc12` [Example 390, (7-Chloropyrazolo[1,5-a]pyrimidin-3-yl)(thien-2-yl)methanone], the melting point fell in the range of 148 to 150 °C. For the same molecule, the IC50 in data set [1] (setting [3]) fell in the range of 1 to 10 µM. For the same molecule, the IC50 in data set [2] (setting [4]) lay in the range of 1 to 20 µM.

`COc1ccccc1/C=C/CNc1cccc(-c2ccnc3c(C(=O)c4cccs4)cnn23)c1` [Example 395, [7-(3-{[(2E)-3-(2-Methoxyphenyl)prop-2-enyl]amino}phenyl)pyrazolo[1,5-a]pyrimidin-3-yl](thien-2-yl)methanone] returned a melting point of 128 to 131 °C. The IC50 in data set [1] (setting [3]) was in the range of 10 to 50 µM. The IC50 in data set [2] (setting [4]) lay in the range of 1 to 20 µM.

With `CC(C)NC(=N)Nc1cccc(-c2ccnc3c(C(=O)c4cccs4)cnn23)c1` [Example 411, N-Isopropyl-N′-{3-[3-(thien-2-ylcarbonyl)pyrazolo[1,5-a]pyrimidin-7-yl]phenyl}guanidine], the melting point was greater than 200 °C. In addition, the IC50 in data set [1] (setting [3]) is 10 to 50 µM.

Take `CC(C)NC(=NC#N)Nc1cccc(-c2ccnc3c(C(=O)c4cccs4)cnn23)c1` [Example 414, N″-Cyano-N-isopropyl-N′-{3-[3-(thien-2-ylcarbonyl)pyrazolo[1,5-a]pyrimidin-7-yl]phenyl}guanidine]: the melting point was 240 to 241 °C. Further, the IC50 in data set [1] (setting [3]) was less than 1 µM.

In the case of `O=C(c1cccs1)c1cnn2c(-c3cccc(-c4ccn(CCN5CCCC5)n4)c3)ccnc12` [Example 520, (7-{3-[1-(2-Pyrrolidin-1-ylethyl)-1H-pyrazol-3-yl]phenyl}pyrazolo[1,5-a]pyrimidin-3-yl)(thien-2-yl)methanone], the IC50 in data set [1] (setting [3]) was in the range of 1 to 10 µM; in data set [2] (setting [4]), 0.1 to 1 µM.

With “(7-{3-[1-(Pyridin-2-ylmethyl)-1H-pyrazol-3-yl]phenyl}pyrazolo[1,5-a]pyrimidin-3-yl)(thien-2-yl)methanone [Example 516]”, the IC50 in data set [1] (setting [5]) was less than 1 µM; in data set [2] (Cellular activity in LoVo cell), less than 0.1 µM.

For “N-{3-[3-(thien-2-ylcarbonyl)pyrazolo[1,5-a]pyrimidin-7-ylphenyl}morpholne-4-carboxamide [Example 157]”, the IC50 in data set [1] (setting [6]) lay in the range of 1 to 10 µM; in data set [2] (LoVo colon cells), 0.1 to 1 µM.

“N-{3-[6-methyl-3-(thien-2-ylcarbonyl)pyrazolo[1,5-a]pyrimidin-7-yl]phenyl}cycopropanecarboxamide [Example 217]”: the values for the IC50 in data set [1] (setting [6]) and in data set [2] (LoVo colon cells) were 10 to 50 µM and less than 0.1 µM, respectively.

On to “N-{4-Chloro-3-[3-(thien-2-ylcarbonyl)pyrazolo[1,5-a]yrimidin-7-yl]phenyl}-N′-isopropylthiourea [Example 340]”, for which the IC50 was 1 to 10 µM in data set [1] (setting [5]) and 0.1 to 1 µM in data set [2] (Cellular activity in LoVo cell).

Consider “Thienylcarbonyl)pyrazolo[1,5-a]pyrimidin-7-yl]phenyl}cyclobutanecarboxamide [Example 275]”, for which the IC50 in data set [1] (setting [5]) is less than 1 µM; in data set [2] (Cellular activity in LoVo cell), less than 0.1 µM.

As for “[7-[3-(2-Methyl-1H-imidazol-1-yl)phenyl]-pyrazolo[1,5-a]pyrimidin-3-vy]-2-thienyl-methanone [Example 245]”, the IC50 in data set [1] (setting [5]) is 10 to 50 µM; in data set [2] (Cellular activity in LoVo cell), 1 to 20 µM.

For “tert-Butyl 4-[2-oxo-2-({3-[3-(thien-2-ylcarbonyl)pyrazolo[1.5-a]pyrimidin-7-yl]phenyl}amino)ethyl]piperidine-1-carboxylate [Example 392]”, the IC50 in data set [1] (setting [5]) was less than 1 µM; in data set [2] (Cellular activity in LoVo cell), less than 0.1 µM.

For “{7-[3-(1-Ethyl-1H-pyrazol-3-yl)phenyl]pyrazolo[1,5-a]pyrimidin-3-yl (thien-2-yl)methanone [Example 518]”, the IC50 in data set [1] (setting [5]) is less than 1 µM; in data set [2] (Cellular activity in LoVo cell) it was less than 0.1 µM.
